According to US4287206A, “Halogen derivatives of 8-hydroxycarboxylic acids; the processes for their preparation and medicaments in which they are present” (priority 1978, dated 1981):

Tests used:
mice [1] = assay: Anti-oxotremorine activity in mice (hypothermia induced by oxotremorine); format: in vivo; conditions: oxotremorine 0.5 mg.kg^-1 i.p.
Method: Anti-oxotremorine activity in mice
At time 0, the mice receive oxotremorine (0.5 mg.kg^-1) by intraperitoneal administration; after 30 minutes, either distilled water or the medicament according to the invention, obtained in accordance with Example I, is administered to the mice intraperitoneally or orally.
The mice are then observed and the trembling is rated from 0 to 3 as a function of its intensity, every 10 minutes for 30 minutes. Moreover, the existence of peripheral symptoms (tears, hypersialosis and defections) is observed for 2 hours, in the presence or absence of trembling. The rectal temperature is measured every 30 minutes for 2 hours, after administration of oxotremorine.

mice [2] = assay: Motor activity in mice (activity meters with photoelectric cells); format: in vivo
Method: The motor activity was determined with the aid of activity meters having photoelectric cells (Boissier and Simon, Arch. int. Pharmacodyn. 1965, 158, 212-221). A minimum of 10 animals was always used per batch.
The mice are placed in the activity meter just after the oral or intraperitoneal administration of the product acccording to the invention, obtained in accordance with Example I. The motor activity is measured as from the introduction into the activity meter up to the 60th minute. The counters are read after 30 minutes, then reset to 0 and read every 10 minutes for 30 minutes.

CC1CC(c2ccc(Cl)cc2)C(c2ccccc2)C(=O)O1 (stereo not drawn) [Example I, trans-4-(4'-chlorophenyl)-6-methyl-3-phenyl-3,4,5,6-tetrahydropyrone-2]
Rectal temperatures °C. (mice [1]; 1 mg/kg oral, 30 min): 29.8 ± 0.40 °C
Rectal temperatures °C. (mice [1]; 1 mg/kg oral, 60 min): 27.8 ± 0.65 °C
Rectal temperatures °C. (mice [1]; 1 mg/kg oral, 90 min): 27.8 ± 1.36 °C
Rectal temperatures °C. (mice [1]; 1 mg/kg oral, 120 min): 28.0 ± 1.65 °C
Rectal temperatures °C. (mice [1]; 2 mg/kg intraperitoneal, 30 min): 30.8 ± 0.43 °C
Rectal temperatures °C. (mice [1]; 2 mg/kg intraperitoneal, 60 min): 29.1 ± 0.46 °C
Rectal temperatures °C. (mice [1]; 2 mg/kg intraperitoneal, 90 min): 29.4 ± 0.52 °C
Rectal temperatures °C. (mice [1]; 2 mg/kg intraperitoneal, 120 min): 29.9 ± 0.77 °C
Rectal temperatures °C. (mice [1]; 2 mg/kg oral, 30 min): 31.5 ± 0.43 °C
Rectal temperatures °C. (mice [1]; 2 mg/kg oral, 60 min): 31.0 ± 0.71 °C
Rectal temperatures °C. (mice [1]; 2 mg/kg oral, 90 min): 31.2 ± 0.86 °C
Rectal temperatures °C. (mice [1]; 2 mg/kg oral, 120 min): 31.9 ± 1.14 °C
Rectal temperatures °C. (mice [1]; 4 mg/kg intraperitoneal, 30 min): 30.2 ± 0.36 °C
Rectal temperatures °C. (mice [1]; 4 mg/kg intraperitoneal, 60 min): 31.8 ± 0.42 °C
Rectal temperatures °C. (mice [1]; 4 mg/kg intraperitoneal, 90 min): 33.5 ± 0.49 °C
Rectal temperatures °C. (mice [1]; 4 mg/kg intraperitoneal, 120 min): 35.7 ± 0.40 °C
Rectal temperatures °C. (mice [1]; 4 mg/kg oral, 30 min): 31.8 ± 0.38 °C
Rectal temperatures °C. (mice [1]; 4 mg/kg oral, 60 min): 31.0 ± 0.34 °C
Rectal temperatures °C. (mice [1]; 4 mg/kg oral, 90 min): 31.6 ± 0.91 °C
Rectal temperatures °C. (mice [1]; 4 mg/kg oral, 120 min): 32.4 ± 0.89 °C
Rectal temperatures °C. (mice [1]; 8 mg/kg intraperitoneal, 30 min): 32.1 ± 0.52 °C
Rectal temperatures °C. (mice [1]; 8 mg/kg intraperitoneal, 60 min): 31.3 ± 0.52 °C
Rectal temperatures °C. (mice [1]; 8 mg/kg intraperitoneal, 90 min): 32.2 ± 0.61 °C
Rectal temperatures °C. (mice [1]; 8 mg/kg intraperitoneal, 120 min): 33.8 ± 0.91 °C
Rectal temperatures °C. (mice [1]; 8 mg/kg oral, 30 min): 32.6 ± 0.32 °C
Rectal temperatures °C. (mice [1]; 8 mg/kg oral, 60 min): 32.4 ± 0.29 °C
Rectal temperatures °C. (mice [1]; 8 mg/kg oral, 90 min): 32.9 ± 0.38 °C
Rectal temperatures °C. (mice [1]; 8 mg/kg oral, 120 min): 33.8 ± 0.56 °C
Rectal temperatures °C. (mice [1]; 16 mg/kg intraperitoneal, 30 min): 32.9 ± 0.46 °C
Rectal temperatures °C. (mice [1]; 16 mg/kg intraperitoneal, 60 min): 32.0 ± 0.65 °C
Rectal temperatures °C. (mice [1]; 16 mg/kg intraperitoneal, 90 min): 32.8 ± 0.60 °C
Rectal temperatures °C. (mice [1]; 16 mg/kg intraperitoneal, 120 min): 35.9 ± 0.81 °C
Rectal temperatures °C. (mice [1]; 16 mg/kg oral, 30 min): 31.9 ± 0.53 °C
Rectal temperatures °C. (mice [1]; 16 mg/kg oral, 60 min): 31.9 ± 0.49 °C
Rectal temperatures °C. (mice [1]; 16 mg/kg oral, 90 min): 32.8 ± 0.70 °C
Rectal temperatures °C. (mice [1]; 16 mg/kg oral, 120 min): 33.6 ± 0.97 °C
Rectal temperatures °C. (mice [1]; 32 mg/kg intraperitoneal, 30 min): 32.0 ± 0.70 °C
Rectal temperatures °C. (mice [1]; 32 mg/kg intraperitoneal, 60 min): 31.2 ± 0.73 °C
Rectal temperatures °C. (mice [1]; 32 mg/kg intraperitoneal, 90 min): 32.2 ± 0.85 °C
Rectal temperatures °C. (mice [1]; 32 mg/kg intraperitoneal, 120 min): 33.2 ± 1.2 °C
Rectal temperatures °C. (mice [1]; 32 mg/kg oral, 30 min): 33.0 ± 0.60 °C
Rectal temperatures °C. (mice [1]; 32 mg/kg oral, 60 min): 32.7 ± 0.63 °C
Rectal temperatures °C. (mice [1]; 32 mg/kg oral, 90 min): 32.8 ± 0.62 °C
Rectal temperatures °C. (mice [1]; 32 mg/kg oral, 120 min): 33.7 ± 0.95 °C
Rectal temperatures °C. (mice [1]; 64 mg/kg intraperitoneal, 30 min): 34.0 ± 0.87 °C
Rectal temperatures °C. (mice [1]; 64 mg/kg intraperitoneal, 60 min): 33.0 ± 1.2 °C
Rectal temperatures °C. (mice [1]; 64 mg/kg intraperitoneal, 90 min): 33.7 ± 1.15 °C
Rectal temperatures °C. (mice [1]; 64 mg/kg intraperitoneal, 120 min): 34.5 ± 1.0 °C
Rectal temperatures °C. (mice [1]; 64 mg/kg oral, 30 min): 32.2 ± 0.32 °C
Rectal temperatures °C. (mice [1]; 64 mg/kg oral, 60 min): 31.7 ± 0.52 °C
Rectal temperatures °C. (mice [1]; 64 mg/kg oral, 90 min): 32.8 ± 0.73 °C
Rectal temperatures °C. (mice [1]; 64 mg/kg oral, 120 min): 34.1 ± 0.62 °C
Rectal temperatures °C. (mice [1]; 128 mg/kg oral, 30 min): 34.8 ± 0.80 °C
Rectal temperatures °C. (mice [1]; 128 mg/kg oral, 60 min): 34.9 ± 0.59 °C
Rectal temperatures °C. (mice [1]; 128 mg/kg oral, 90 min): 36.2 ± 0.82 °C
Rectal temperatures °C. (mice [1]; 128 mg/kg oral, 120 min): 37.1 ± 0.77 °C
Rectal temperatures °C. (mice [1]; 256 mg/kg oral, 30 min): 32.4 ± 0.63 °C
Rectal temperatures °C. (mice [1]; 256 mg/kg oral, 60 min): 31.3 ± 0.73 °C
Rectal temperatures °C. (mice [1]; 256 mg/kg oral, 90 min): 32.4 ± 1.07 °C
Rectal temperatures °C. (mice [1]; 256 mg/kg oral, 120 min): 33.9 ± 1.30 °C
Number of rays passed through by mice (mice [2]; Table Ia, 1 mg/kg intraperitoneal, 30 + 10 min): 76
Number of rays passed through by mice (mice [2]; Table Ia, 1 mg/kg intraperitoneal, 30 + 20 min): 163
Number of rays passed through by mice (mice [2]; Table Ia, 1 mg/kg intraperitoneal, 30 + 30 min): 235
Number of rays passed through by mice (mice [2]; Table Ia, 1 mg/kg intraperitoneal, 30 min): 400
Number of rays passed through by mice (mice [2]; Table Ia, 2 mg/kg intraperitoneal, 30 + 10 min): 114
Number of rays passed through by mice (mice [2]; Table Ia, 2 mg/kg intraperitoneal, 30 + 20 min): 231
Number of rays passed through by mice (mice [2]; Table Ia, 2 mg/kg intraperitoneal, 30 + 30 min): 331
Number of rays passed through by mice (mice [2]; Table Ia, 2 mg/kg intraperitoneal, 30 min): 474
Number of rays passed through by mice (mice [2]; Table Ia, 4 mg/kg intraperitoneal, 30 + 10 min): 129
Number of rays passed through by mice (mice [2]; Table Ia, 4 mg/kg intraperitoneal, 30 + 20 min): 269
Number of rays passed through by mice (mice [2]; Table Ia, 4 mg/kg intraperitoneal, 30 + 30 min): 322
Number of rays passed through by mice (mice [2]; Table Ia, 4 mg/kg intraperitoneal, 30 min): 529
Number of rays passed through by mice (mice [2]; Table Ia, 4 mg/kg oral, 30 + 10 min): 139
Number of rays passed through by mice (mice [2]; Table Ia, 4 mg/kg oral, 30 + 20 min): 257
Number of rays passed through by mice (mice [2]; Table Ia, 4 mg/kg oral, 30 + 30 min): 386
Number of rays passed through by mice (mice [2]; Table Ia, 4 mg/kg oral, 30 min): 462
Number of rays passed through by mice (mice [2]; Table Ia, 8 mg/kg intraperitoneal, 30 + 10 min): 147
Number of rays passed through by mice (mice [2]; Table Ia, 8 mg/kg intraperitoneal, 30 + 20 min): 309
Number of rays passed through by mice (mice [2]; Table Ia, 8 mg/kg intraperitoneal, 30 + 30 min): 467
Number of rays passed through by mice (mice [2]; Table Ia, 8 mg/kg intraperitoneal, 30 min): 659
Number of rays passed through by mice (mice [2]; Table Ia, 8 mg/kg oral, 30 + 10 min): 157
Number of rays passed through by mice (mice [2]; Table Ia, 8 mg/kg oral, 30 + 20 min): 314
Number of rays passed through by mice (mice [2]; Table Ia, 8 mg/kg oral, 30 + 30 min): 461
Number of rays passed through by mice (mice [2]; Table Ia, 8 mg/kg oral, 30 min): 478
Number of rays passed through by mice (mice [2]; Table Ia, 16 mg/kg intraperitoneal, 30 + 10 min): 176
Number of rays passed through by mice (mice [2]; Table Ia, 16 mg/kg intraperitoneal, 30 + 20 min): 336
Number of rays passed through by mice (mice [2]; Table Ia, 16 mg/kg intraperitoneal, 30 + 30 min): 465
Number of rays passed through by mice (mice [2]; Table Ia, 16 mg/kg intraperitoneal, 30 min): 763
Number of rays passed through by mice (mice [2]; Table Ia, 16 mg/kg oral, 30 + 10 min): 232
Number of rays passed through by mice (mice [2]; Table Ia, 16 mg/kg oral, 30 + 20 min): 428
Number of rays passed through by mice (mice [2]; Table Ia, 16 mg/kg oral, 30 + 30 min): 636
Number of rays passed through by mice (mice [2]; Table Ia, 16 mg/kg oral, 30 min): 629
Number of rays passed through by mice (mice [2]; Table Ia, 32 mg/kg intraperitoneal, 30 + 10 min): 187
Number of rays passed through by mice (mice [2]; Table Ia, 32 mg/kg intraperitoneal, 30 + 20 min): 422
Number of rays passed through by mice (mice [2]; Table Ia, 32 mg/kg intraperitoneal, 30 + 30 min): 594
Number of rays passed through by mice (mice [2]; Table Ia, 32 mg/kg intraperitoneal, 30 min): 891
Number of rays passed through by mice (mice [2]; Table Ia, 32 mg/kg oral, 30 + 10 min): 270
Number of rays passed through by mice (mice [2]; Table Ia, 32 mg/kg oral, 30 + 20 min): 587
Number of rays passed through by mice (mice [2]; Table Ia, 32 mg/kg oral, 30 + 30 min): 869
Number of rays passed through by mice (mice [2]; Table Ia, 32 mg/kg oral, 30 min): 783
Number of rays passed through by mice (mice [2]; Table Ib, 2 mg/kg, route not given, 0 + 10 min): 119
Number of rays passed through by mice (mice [2]; Table Ib, 2 mg/kg, route not given, 30 + 20 min): 221
Number of rays passed through by mice (mice [2]; Table Ib, 2 mg/kg, route not given, 30 + 30 min): 334
Number of rays passed through by mice (mice [2]; Table Ib, 2 mg/kg, route not given, 30 min): 417
Number of rays passed through by mice (mice [2]; Table Ib, 4 mg/kg, route not given, 0 + 10 min): 129
Number of rays passed through by mice (mice [2]; Table Ib, 4 mg/kg, route not given, 30 + 20 min): 259
Number of rays passed through by mice (mice [2]; Table Ib, 4 mg/kg, route not given, 30 + 30 min): 376
Number of rays passed through by mice (mice [2]; Table Ib, 4 mg/kg, route not given, 30 min): 472
Number of rays passed through by mice (mice [2]; Table Ib, 8 mg/kg, route not given, 0 + 10 min): 141
Number of rays passed through by mice (mice [2]; Table Ib, 8 mg/kg, route not given, 30 + 20 min): 286
Number of rays passed through by mice (mice [2]; Table Ib, 8 mg/kg, route not given, 30 + 30 min): 443
Number of rays passed through by mice (mice [2]; Table Ib, 8 mg/kg, route not given, 30 min): 452
Number of rays passed through by mice (mice [2]; Table Ib, 16 mg/kg, route not given, 0 + 10 min): 172
Number of rays passed through by mice (mice [2]; Table Ib, 16 mg/kg, route not given, 30 + 20 min): 359
Number of rays passed through by mice (mice [2]; Table Ib, 16 mg/kg, route not given, 30 + 30 min): 537
Number of rays passed through by mice (mice [2]; Table Ib, 16 mg/kg, route not given, 30 min): 565
Number of rays passed through by mice (mice [2]; Table Ib, 32 mg/kg, route not given, 0 + 10 min): 184
Number of rays passed through by mice (mice [2]; Table Ib, 32 mg/kg, route not given, 30 + 20 min): 376
Number of rays passed through by mice (mice [2]; Table Ib, 32 mg/kg, route not given, 30 + 30 min): 547
Number of rays passed through by mice (mice [2]; Table Ib, 32 mg/kg, route not given, 30 min): 560
